Reference: US20230270692A1, “COMPOUNDS FOR CHRONIC DISORDERS” (Pillai Universal LLC, priority 2020, published 2023)
Where two headings read alike, the source gives them in different places.

Tests used:
[1] = system: xenograft nude mice models (triple-negative breast cancer, pancreatic, liver, colon cancer); assay: In vivo metastasis / stage IV tumor studies in xenograft nude mice versus standard drugs
[2] = system: panel of human normal cell lines; assay: MTT cytotoxicity of anticancer agents on normal cell lines, alone and with Compound I; settings: Homo sapiens, read-out: IC50 (average)
Protocol: The cytotoxicity of anticancer agents was studied using a panel of human normal cell lines alone and with the combination of Compound I of the present invention. The cytotoxicity effect was determined by MTT assay. The following cell lines were used: Human epidermal keratinocytes cells (HaCaT), Human dermal fibroblast (HDF), Human bone marrow mesenchymal stem cells (HBMSCs), Human normal hepatocytes cells (THLE2), Human cardiac cells (AC-16), Human intestinal epithelial cells (HIEC-6), Human neuronal cells (SHSY-5Y), Human vascular Endothelial cells (HuVECs), Human lung epithelial cells (Calu-3), Human lung fibroblast (MRC 5).
Next, the cells were treated with anticancer agents in combination with Compound I of the present invention.

[3] = system: Pancreatic adenocarcinoma cells (PANC); assay: MTT cell viability of pancreatic cancer cells; type: cell-based, Human; settings: Homo sapiens, Pancreatic cancer cell
Protocol: (§1) The synthesized compounds of Formula 1-4 were evaluated for cell proliferation, apoptosis, cell cycle arrest, the generation of reactive oxygen species and calcium were measured using MTT assay and flow cytometry, respectively. The expression of apoptosis- and proliferation-related proteins was determined by western blotting. The effect of molecules on apoptosis-related mRNA expression in cancer cells was detected by RT-PCR.
(§2) Changes in cell morphology were detected by the presence of cell membrane blebbing, chromatin condensation, and formation of apoptotic bodies (FIG. 10A).

[4] = system: xenograft nude mice models (triple-negative breast cancer, pancreatic, liver, colon cancer); settings: mouse, in vivo
normal pancreatic cells = assay: Viability of normal pancreatic cells; type: cell-based, Human; settings: at 6 h
Protocol: as §1, §2

PANC-1 xenograft = PANC-1 xenograft mouse model; type: in vivo; settings: day 5 to day 30; 25 mg/kg gemcitabine, 10 mg/kg Compound I
Protocol: Study Design: A PANC-1 xenograft mouse model was carried out according to the experimental design described in FIG. 21A. Tumor volume was monitored over a 30-day period upon administration of PBS alone (vehicle control), 25 mg/kg gemcitabine, and 10 mg/kg Compound I.

| Molecule | mortality ([1]; nude, mouse, in vivo) [%] | mortality ([1]; treating stage IV cancer) [%] | IC50 [2] [µM] | Toxicity [4] | other results |
| --- | --- | --- | --- | --- | --- |
| O=c1[nH]cc(F)c(=O)[nH]1 [5-Fluorouracil] | 70 | 70 | 12.9 to 40.5 | Cardiotoxicity, Hepatotoxicity | Antioxidant Activity (increased antioxidant parameters) ([1]; mouse, in vivo): 10% of; Tumor volume (reduction / changes) ([1]; mouse, in vivo): 35%; cytotoxicity at 10 µM ([3]; 3 h, read-out: decrease in viable cells): 30.21 ± 0.21%; IC50 ([3]; PANC cells, after 24 hours of exposure): 5.21 ± 0.19 µM; Toxicity (normal pancreatic cells): 40.32±0.98% |
| CCN(CC)CCCC(C)Nc1ccnc2cc(Cl)ccc12 (stereo not shown) [Chloroquine] | – | – | 12.9 to 40.5 | – | – |
| COc1cccc2c1C(=O)c1c(O)c3c(c(O)c1C2=O)C[C@@](O)(C(=O)CO)C[C@@H]3O[C@H]1C[C@H](N)[C@H](O)[C@H](C)O1 [Doxorubicin] | – | – | 12.9 to 40.5 | – | – |
| Nc1ccn([C@@H]2O[C@H](CO)[C@@H](O)C2(F)F)c(=O)n1 [Gemcitabine] | 50 | 50 | 12.9 to 40.5 | Developed | CSCs (target on CSCs population) ([1]; mouse, in vivo): 5% Target on; tumor volume (PANC-1 xenograft): steadily increases |
| CCN(CCO)CCCC(C)Nc1ccnc2cc(Cl)ccc12 (stereo not shown) [Hydroxychloroquine] | – | – | 12.9 to 40.5 | – | – |
| CCc1c2c(nc3ccc(OC(=O)N4CCC(N5CCCCC5)CC4)cc13)-c1cc3c(c(=O)n1C2)COC(=O)[C@]3(O)CC [Irinotecan] | – | – | 12.9 to 40.5 | – | – |
| Nc1cccc2c1CN(C1CCC(=O)NC1=O)C2=O (stereo not shown) [Revlimid] | 100 | 100 | – | Cardiotoxicity, Hepatotoxicity, Toxicity to vital organs and normal tissues | – |
| CC[C@]1(O)C[C@H]2CN(CCc3c([nH]c4ccccc34)[C@@](C(=O)OC)(c3cc4c(cc3OC)N(C=O)[C@H]3[C@@](O)(C(=O)OC)[C@H](OC(C)=O)[C@]5(CC)C=CCN6CC[C@]43[C@@H]65)C2)C1 [Vincristine] | – | – | 12.9 to 40.5 | – | – |
| Avastin: current treatment standard drug, Inhibition of VEGF | – | 60 | – | – | Metastasis (prevention) ([1]; mouse, in vivo): 10%; Toxicity ([1]; mouse, in vivo): Toxic to vital; Tumor volume (reduction / changes) ([1]; mouse, in vivo): 20%; mortality ([1]; mouse, in vivo): 60% |
